# Measured values: patent US6914045B2, “Glycopeptide antibiotics” (Wyeth Holdings Corporation, priority 2001, dated 2005)
# Assays:
# Test in all cases: in vitro antibacterial evaluation, MIC by broth dilution
# Type in all cases: cell-based
# [1] = tested on: Streptococcus sp.; details: broth dilution, 18 hours at 35° C.; for MIC Streptococcus pneumoniae (ATCC 6301): strain ATCC 6301; for MIC Streptococcus pneumoniae (GC 1894): strain GC 1894; for MIC Streptococcus pyogenes (GC 4563): strain GC 4563; for MIC Streptococcus agalactiae (GC 4564): strain GC 4564; for MIC Streptococcus pneumoniae (GC 4565): strain GC 4565
# Outline: (§1)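 MIC, the lowest antibiotic concentration preventing growth, was read across 64-0.06 μg/mL with 5×10^5 CFU/mL inoculum. Method followed NCCLS M7-A2 broth dilution using Mueller-Hinton II; Gram-positive strains covered recent methicillin-, penicillin- and/or vancomycin-resistant clinical isolates.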
# [2] = tested on: Enterococcus sp.; details: broth dilution, 18 hours at 35° C.; for MIC Enterococcus faecalis (ATCC 29212): strain ATCC 29212; for MIC Enterococcus faecalis (GC 2242): strain GC 2242; for MIC Enterococcus faecium (GC 2243): strain GC 2243; for MIC Enterococcus faecalis (GC 2691): strain GC 2691; for MIC Enterococcus faecalis (GC 3059): strain GC 3059; for MIC Enterococcus faecalis (GC 4552): strain GC 4552; for MIC Enterococcus faecalis (GC 4553): strain GC 4553; for MIC Enterococcus faecalis (GC 4554): strain GC 4554; for MIC Enterococcus faecium (GC 4556): strain GC 4556; for MIC Enterococcus faecium (GC 4557): strain GC 4557; for MIC Enterococcus avium (GC 4558): strain GC 4558; for MIC Enterococcus faecalis (GC 6189): strain GC 6189
# Outline: as §1
# [3] = tested on: Staphylococcus sp.; details: broth dilution, 18 hours at 35° C.; for MIC Staphylococcus aureus (GC 1131): strain GC 1131
# Outline: as §1
# [4] = tested on: Escherichia coli
# Outline: as §1
smiles,measurement,setting,value
CC(c1ccccc1)C1NC(=O)CNC(=O)C(CO)NC(=O)C(C(O)C2CNC(=N)N2C2OC(CO)C(O)C(O)C2O)NC(=O)C(C(O)C2CNC(=N)N2)NC(=O)C(Cc2ccc(OC3OC(CO)C(OC4OC5COC(c6ccc(-c7cccs7)cc6)OC5C(O)C4O)C(O)C3O)cc2)NC1=O (stereo not drawn) [Example 163],MIC Streptococcus pneumoniae (ATCC 6301),[1]; inoculum 5×10^5 CFU/mL,<0.5 µg/mL
same,MIC Streptococcus pneumoniae (GC 1894),[1]; inoculum 5×10^5 CFU/mL,<0.5 µg/mL
same,MIC Streptococcus pyogenes (GC 4563),[1]; inoculum 5×10^5 CFU/mL,<0.5 µg/mL
same,MIC Streptococcus agalactiae (GC 4564),[1]; inoculum 5×10^5 CFU/mL,<0.5 µg/mL
same,MIC Streptococcus pneumoniae (GC 4565),[1]; inoculum 5×10^5 CFU/mL,1 µg/mL
same,MIC Streptococcus pneumoniae (ATCC 6301),[1],<0.5 µg/mL
same,MIC Streptococcus pneumoniae (GC 1894),[1],<0.5 µg/mL
same,MIC Streptococcus pyogenes (GC 4563),[1],<0.5 µg/mL
same,MIC Streptococcus agalactiae (GC 4564),[1],<0.5 µg/mL
same,MIC Streptococcus pneumoniae (GC 4565),[1],1 µg/mL
same,MIC Enterococcus faecalis (ATCC 29212),[2]; inoculum 5×10^5 CFU/mL,8 µg/mL
same,MIC Enterococcus faecalis (GC 2242),[2]; inoculum 5×10^5 CFU/mL,4 µg/mL
same,MIC Enterococcus faecium (GC 2243),[2]; inoculum 5×10^5 CFU/mL,8 µg/mL
same,MIC Enterococcus faecalis (GC 2691),[2]; inoculum 5×10^5 CFU/mL,4 µg/mL
same,MIC Enterococcus faecalis (GC 3059),[2]; inoculum 5×10^5 CFU/mL,8 µg/mL
same,MIC Enterococcus faecalis (GC 4552),[2]; inoculum 5×10^5 CFU/mL,8 µg/mL
same,MIC Enterococcus faecalis (GC 4553),[2]; inoculum 5×10^5 CFU/mL,4 µg/mL
same,MIC Enterococcus faecalis (GC 4554),[2]; inoculum 5×10^5 CFU/mL,8 µg/mL
same,MIC Enterococcus faecium (GC 4556),[2]; inoculum 5×10^5 CFU/mL,4 µg/mL
same,MIC Enterococcus faecium (GC 4557),[2]; inoculum 5×10^5 CFU/mL,8 µg/mL
same,MIC Enterococcus avium (GC 4558),[2]; inoculum 5×10^5 CFU/mL,4 µg/mL
same,MIC Enterococcus faecalis (GC 6189),[2]; inoculum 5×10^5 CFU/mL,4 µg/mL
same,MIC Enterococcus faecalis (ATCC 29212),[2],8 µg/mL
same,MIC Enterococcus faecalis (GC 2242),[2],4 µg/mL
same,MIC Enterococcus faecium (GC 2243),[2],8 µg/mL
same,MIC Enterococcus faecalis (GC 2691),[2],4 µg/mL
same,MIC Enterococcus faecalis (GC 3059),[2],8 µg/mL
same,MIC Enterococcus faecalis (GC 4552),[2],8 µg/mL
same,MIC Enterococcus faecalis (GC 4553),[2],4 µg/mL
same,MIC Enterococcus faecalis (GC 4554),[2],8 µg/mL
same,MIC Enterococcus faecium (GC 4556),[2],4 µg/mL
same,MIC Enterococcus faecium (GC 4557),[2],8 µg/mL
same,MIC Enterococcus avium (GC 4558),[2],4 µg/mL
same,MIC Enterococcus faecalis (GC 6189),[2],4 µg/mL
same,MIC Staphylococcus aureus (GC 1131),[3]; inoculum 5×10^5 CFU/mL,4 µg/mL
same,MIC Staphylococcus aureus (ATCC 29213),[3]; strain ATCC 29213,4 µg/mL
same,MIC Staphylococcus aureus (GC 1131),[3],4 µg/mL
same,MIC Staphylococcus aureus (GC 3051),[3]; strain GC 3051,8 µg/mL
same,MIC Staphylococcus aureus (GC 3053),[3]; strain GC 3053,8 µg/mL
same,MIC Staphylococcus aureus (GC 4541),[3]; strain GC 4541,4 µg/mL
same,MIC Staphylococcus aureus (GC 4542),[3]; strain GC 4542,4 µg/mL
same,MIC Staphylococcus aureus-SMITH (GC 4543),[3]; strain GC 4543,1 µg/mL
same,MIC Staphylococcus aureus (GC 4544),[3]; strain GC 4544,4 µg/mL
same,MIC Staphylococcus aureus (GC 4545),[3]; strain GC 4545,4 µg/mL
same,MIC Staphylococcus haemolyticus (GC 4546),[3]; strain GC 4546,4 µg/mL
same,MIC Coagulase Negative Staphylococcus (GC 4547),[3]; strain GC 4547,8 µg/mL
same,MIC Coagulase Negative Staphylococcus (GC 4548),[3]; strain GC 4548,1 µg/mL
same,MIC Coagulase Negative Staphylococcus (GC 4549),[3]; strain GC 4549,4 µg/mL
same,MIC Coagulase Negative Staphylococcus (GC 4551),[3]; strain GC 4551,2 µg/mL
same,MIC Coagulase Negative Staphylococcus (GC 6257),[3]; strain GC 6257,2 µg/mL
same,MIC Staphylococcus aureus-SMITH (GC 4543),[3]; strain SMITH GC 4543,1 µg/mL
same,MIC Escherichia coli (ATCC 25922),"[4]; strain ATCC 25922, 18 hours at 35° C.",>64 µg/mL
same,MIC Escherichia coli (GC 4559),"[4]; strain GC 4559, 18 hours at 35° C.",64 µg/mL
same,MIC Escherichia coli (GC 4560),"[4]; strain GC 4560, 18 hours at 35° C.",8 µg/mL
